Consider two compounds from patent publication US10993936B2, “Method of treating one or more symptoms of pulmonary fibrosis by administering inhibitors of nicotinamide phosphoribotransferase” (Arizona Board of Regents on Behalf of the University of …, priority 2017, dated 2021).

Assay [1] has as its system IPF fibroblasts. In words: staurosporine-induced apoptosis in IPF lung myofibroblasts. The conditions noted are these: IPF fibroblasts pre-treated with FK-866; FIG. 11B. Type of assay: cell-based, human. The source says:
Human lung tissue and fibroblasts were isolated from the lungs of patients with a confirmed diagnosis of IPF as previously described (18), under an approved protocol by the Institutional Review Board. Fibroblasts were isolated and evaluated for apoptosis, senescence, and ROS levels by immunofluorescence, immunohistochemistry, and/or biochemical assays.
Cells were lysed using caspase lysis buffer and analyzed for activated caspase 3 using the BioVision Caspase 3 Fluorometric Assay Kit according to the manufacturer's instructions (BioVision, Inc, Milpitas Calif.).
Nampt contributes to mouse and human IPF fibroblasts resistance to apoptosis. Staurosporine (300 nM, 8 h)-induced expression of apoptotic markers, cleaved caspase 3 and PARP (FIG. 11A) was increased in lung fibroblasts isolated from Nampt+/− compared with WT mice.

In assay [2] the test system is H2O2-induced apoptosis. In words: H2O2-induced apoptosis defined by the TUNEL assay. The settings on record: FIG. 14. Type of assay: cell-based. The protocol:
Slices were first incubated with anti-αSMA overnight at 4° C. After the TUNEL protocol, slides were mounted in DAPI-containing media (Vector Labs) and cells were visualized on a Zeiss fluorescent microscope. TUNEL-positive cells were counted per field in 15-20 fields and normalized to total cells from the DAPI stain.
FIGS. 12A-D show chemical structure of the NAMPT inhibitor, FK-866 (FIG. 12A) which is divided into three regions (FIG. 12B) and varied by replacing with N-heterocycles to generate novel FK866 analogs: MS-1-82 (FIG. 12C), Rari049 (FIG. 12D), Alpii135 (FIG. 12E); FIG. 13 is a bar graph showing normalized NAMPT activity in the present of FK866 and FK analogues MS-1-82, Rari049, Alpii135 at […] concentrations; FIG. 14 is a bar graph showing the role of Nampt enzymatic activity in H2O2-induced apoptosis defined by the TUNEL assay.

The nature of assay [3]: MCT-PH preventive therapy study. Type of assay: in vivo. The conditions noted are these: preliminary studies. The source says:
To generate functional analogs of the NAMPT inhibitor FK-866, the FK-866 structure was divided into three regions and varied by replacing with N-heterocycles to generate FK866 analogs.

For `O=C(/C=C/c1cccnc1)NCCCCC1CCN(C(=O)c2ccccc2)CC1` [FK-866, (E)-N-[4-(1-Benzoylpiperidin-4-yl)butyl]-3-pyridin-3-ylprop-2-enamide], the staurosporine-induced apoptosis result in assay [1] is “restored apoptosis”. Also, the H2O2-induced apoptosis result in assay [2] is “blocks H2O2-induced apoptosis”.
Consider `O=C(/C=C/c1cccnc1)NCCCCCCn1c(-c2ccccc2)cc2ccccc21` [Rari049], for which, in assay [3], the “hyper-trophy-ratio of RV and LV plus septal-S weight (RVH-RV)” value is “reducing”; the “right ventricular systolic pressure (RVSP)” value is “reducing”.
